In US20260374792A1, “PHENYL-FREE BISCATIONIC QUATERNARY PHOSPHONIUM COMPOUNDS AS ANTIMICROBIAL AGENTS” (priority 2022, published 2026):

How the values were obtained:
[1] = tested on: E. faecalis; assay: MBEC, biofilm eradication, E. faecalis; type: cell-based, Enterococcus faecalis; conditions: 24 hours, 37 °C, TSB
Procedure: (§1) A regrowth assay was used to establish the MBEC of a compound to evaluate the antibiofilm activity.
(§2) Biofilm eradication experiments were performed using a pegged-lid microtiter plate assay to determine the MBEC values for compounds of interest, as previously described. […] Sci. Rep. 2017, 7, 2003; and Raval, Y. S., Flurin, L., Mohamed, A., Greenwood-Quaintance, K. E., Beyenal, H., & Patel, R. In Vitro Activity of Hydrogen Peroxide and Hypochlorous Acid Generated by Electrochemical Scaffolds Against Planktonic and Biofilm Bacteria. Antimicrob Agents Chemother. 2021, 65, e01966-20. Briefly, […] of mid-log phase culture diluted to ca. 10^6 CFU/mL in tryptic soy broth (TSB) was added to wells of plat-bottom 96-well plates (Thermo Scientific, 266120) and covered with 96-pegged lid (Thermo Scientific, 445497). Plates were incubated to establish bacterial biofilms after incubation at 37 °C for 24 hours. The pegged lid was then removed, washed with PBS, and transferred to another 96-well plate containing 2-fold serial dilutions of the test compounds (the “challenge plate”). The total volume in each well was […], comprising of […] of compound diluted in water/DMSO, with a starting DMSO concentration of 2.5%, and […] of TSB. Plates were incubated statically at 37 °C for 24 hours. Next, the pegged lids were transferred to a fresh 96-well plate containing […] of TSB and incubated overnight at 37 °C. MBEC values were determined as the lowest test concentration that resulted eradicated biofilm (i.e., wells displaying no turbidity in the final plate).

[2] = Dynamic surface tension (bubble pressure tensiometer); type: physicochemical; conditions: 100, 300 and 1000 ppm in deionized water, 22 °C; 10 to 10,000 ms surface age
Procedure: All samples were analyzed using a Krüss BPT Mobile bubble pressure tensiometer. Solutions of 12(2)12 and ^MeP2P-12,12 were made in concentrations of 100, 300 and 1000 ppm using deionized water. Measurements were conducted at 22+1 °C. Before each sample run, a new capillary tip was installed and the instrument was calibrated with deionized water. The dynamic surface tension (mN/m) was measured as a function of surface bubble age (30 collection points over the range of 10 to 10,000 ms).
In order to further investigate these highly analogous bis-cationic structures, a Krüss bubble pressure tensiometer was utilized to measure the dynamic surface tension of 12(2)12 and ^MeP2P-12,12.
Antimicrobial activity is expected to be affected by differences in solution behavior of amphiphilic molecules, such as the propensity to form micelles and solution dispersion rates. Structural factors such as nature of the charge and the alkyl chain length of the amphiphile have been previously reported to change the behavior of surfactants. These types of structural factors are consistent with the factors that influence the inventors' proposed mechanism of action for bacteria membrane disruption by multicationic QACs. […]

[3] = tested on: P. aeruginosa; assay: MBEC, biofilm eradication, P. aeruginosa; type: cell-based, Pseudomonas aeruginosa; conditions: 24 hours, 37 °C, TSB
Procedure: as §1, §2

[4] = tested on: CA-MRSA (USA300-0114); assay: MIC against community-acquired methicillin-resistant S. aureus (CA-MRSA); type: cell-based; conditions: Staphylococcus aureus, 72 h
Procedure: (§3) The term “minimum inhibitory concentration (MIC)” means the lowest concentration of an antimicrobial agent that will inhibit the visible growth of a microorganism after overnight incubation. MIC values against bacteria, for example, the Gram-positive Staphylococcus aureus and Enterococcus faecalis and the Gram-negative Escherichia coli and Pseudomonas aeruginosa were determined by standard methods. See also P. A. Wayne, Methods for Dilution Antimicrobial Tests for Bacteria that Grow Aerobically; Approved Standard, Ninth Edition, 2012, CLSI Document M07-A9, Vol. 32 No. 2.
(§4) Biological testing procedures were adapted from prior work by Melander and coworkers. For all biological assays, laboratory strains of methicillin-susceptible Staphylococcus aureus MSSA (SH1000), Staphylococcus aureus CA-MRSA (USA300-0114), Staphylococcus aureus HA-MRSA (ATCC 33591), Escherichia coli (MC4100), Enterococcus faecalis (OG1RF), Acinetobacter baumannii (ATCC 17978), were grown with shaking at 37 °C overnight from freezer stocks in 5 mL of the indicated media: SH1000, OG1RF, MC4100, USA300-0114, and ATCC 17978 were grown in BDTM Mueller-Hinton broth (MHB), whereas ATCC 33591 was grown in BDTM tryptic soy broth (TSB). The inoculum were then streaked onto Mueller-Hinton agar (MHA) plates and grown overnight at 37 °C. From the plates, single colonies were selected, diluted into 50 mL of fresh media and grown overnight at 37 °C with shaking for use in the MIC assays. Optical density (OD) measurements were obtained using a SpectraMax iD3 plate reader (Molecular Devices, United States).
(§5) Compounds were serially diluted two-fold from stock solutions (1.0 mM) to yield twelve 100 μL test concentrations, wherein the starting concentration of dimethyl sulfoxide (DMSO) was 2.5%. Overnight S. aureus, E. faecalis, E. coli, A. baumannii, USA300-0114 (CA-MRSA), and ATCC 33591 (HA-MRSA) cultures were diluted to ca. 10^6 CFU/mL in MHB or TSB and regrown to mid-exponential phase, as determined by optical density recorded at 600 nm (OD600). All cultures were then diluted again to ca. 10^6 CFU/mL and 100 μL were inoculated into each well of a U-bottom 96-well plate (Corning, 351177) containing 100 μL of compound solution. Plates were incubated statically at 37 °C for 72 hours upon which wells were evaluated visually for bacterial growth. The MIC was determined as the lowest concentration of compound resulting in no bacterial growth visible to the naked eye, based on the highest value in three independent experiments. Aqueous DMSO controls were conducted as appropriate for each compound.
(§6) The prepared library of biscationic amphiphilic compounds was assessed for performance as antibacterial disinfectants by determining the minimum inhibitory concentration (MIC) for each against a panel of bacteria. The bacteria selected for the study were chosen to evaluate the broad spectrum antimicrobial performance of the QPCs, and therefore, included both Gram-positive and Gram-negative bacterial strains, including those with known antimicrobial resistance mechanisms. These bacteria include the Gram-positive strains of methicillin-susceptible Staphylococcus aureus [MSSA; SH1000], community-acquired methicillin-resistant Staphylococcus aureus [CA-MRSA; USA 300-0114], hospital-acquired methicillin-resistant Staphylococcus aureus [HA-MRSA; ATCC 33591] and the […], Escherichia coli [MC4100], Acinetobacter baumannii [ATCC 17498] and Pseudomonas aeruginosa [PAO1].

[5] = tested on: HA-MRSA; assay: MBEC, biofilm eradication, HA-MRSA; type: cell-based, Staphylococcus aureus; conditions: 24 hours, 37 °C, TSB
Procedure: as §1, §2

[6] = tested on: HA-MRSA (ATCC 33591); assay: MIC against hospital-acquired methicillin-resistant S. aureus (HA-MRSA); type: cell-based; conditions: Staphylococcus aureus, 72 h
Procedure: as §3, §4, §5, §6

Compound | MBEC [1] | dynamic surface tension (in words) [2] | MBEC [3] | MIC [4] | MBEC [5] | MIC [6]
CCCCCCCCCCCC[N+](C)(C)CC[N+](C)(C)CCCCCCCCCCCC [12(2)12, reference compound] | 8 µM | behave almost identically in solution | >250 µM | 2 µM | 4 µM | 1 µM
CCCCCCCCCCCC[P+](C)(C)CC[P+](C)(C)CCCCCCCCCCC [^MeP2P-12,12] | 8 µM | behave almost identically in solution | >250 µM | 2 µM | 8 µM | 1 µM
